Measured values taken from ChEMBL document CHEMBL3045083, “Insect growth regulators as potential insecticides to control olive fruit fly (Bactrocera oleae Rossi): insect toxicity bioassays and molecular docking approach” (2013).

What was measured:
Type in all cases: functional
Bactrocera oleae [1] = test: Insecticidal activity against Bactrocera oleae assessed as insect mortality after 24 hr
Bactrocera oleae [2] = test: Insecticidal activity against Bactrocera oleae assessed as insect mortality at 96 mg Ai/L applied through residual contact on glass surfaces measured after 7 days (reference value: 4.0 +/- 4.0%); details: 168 h
Bactrocera oleae [3] = test: Insecticidal activity against Bactrocera oleae assessed as insect mortality at 96 mg Ai/L applied through residual contact on glass surfaces measured after 24 hr (reference value: 2.0 +/- 2.0%)
Bactrocera oleae [4] = test: Insecticidal activity against Bactrocera oleae assessed as insect survival lifespan at 96 mg Ai/L applied through oral ingestion (reference value: 79.7 +/- 12.2 days)
Bactrocera oleae [5] = test: Insecticidal activity against Bactrocera oleae assessed as insect mortality at 96 mg Ai/L applied through oral ingestion measured after 15 days (reference value: 2.5 +/- 2.5%); details: 360 h
Bactrocera oleae [6] = test: Insecticidal activity against Bactrocera oleae assessed as insect mortality at 96 mg Ai/L applied through oral ingestion measured after 7 days (reference value: 2.5 +/- 2.5%); details: 168 h
Bactrocera oleae [7] = test: Insecticidal activity against Bactrocera oleae assessed as insect mortality at 96 mg Ai/L applied through oral ingestion measured after 24 hr (reference value: 0%)
Bactrocera oleae [8] = test: Insecticidal activity against Bactrocera oleae assessed as insect mortality at 96 mg Ai/L applied through residual contact on glass surfaces measured after 15 days (reference value: 45.8 +/- 16.3%); details: 360 h
Anastrepha suspensa [9] = test: Insecticidal activity against Anastrepha suspensa assessed as reduction in egg viability administered through diet ingestion measured after 8 to 10 days
Anastrepha suspensa [10] = test: Insecticidal activity against Anastrepha suspensa assessed as insect mortality administered through diet ingestion measured after 12 to 14 days
Bactrocera oleae [11] = test: Insecticidal activity against Bactrocera oleae assessed as insect mortality at 180 mg Ai/L applied through residual contact on glass surfaces measured after 24 hr (reference value: 2.0 +/- 2.0%)
Bactrocera oleae [12] = test: Insecticidal activity against Bactrocera oleae assessed as insect survival lifespan at 180 mg Ai/L applied through oral ingestion (reference value: 79.7 +/- 12.2 days)
Bactrocera oleae [13] = test: Insecticidal activity against Bactrocera oleae assessed as insect mortality at 180 mg Ai/L applied through oral ingestion measured after 15 days (reference value: 2.5 +/- 2.5%); details: 360 h
Bactrocera oleae [14] = test: Insecticidal activity against Bactrocera oleae assessed as insect mortality at 180 mg Ai/L applied through oral ingestion measured after 7 days (reference value: 2.5 +/- 2.5%); details: 168 h
Bactrocera oleae [15] = test: Insecticidal activity against Bactrocera oleae assessed as insect mortality at 180 mg Ai/L applied through oral ingestion measured after 24 hr (reference value: 0%)
Bactrocera oleae [16] = test: Insecticidal activity against Bactrocera oleae assessed as insect mortality at 180 mg Ai/L applied through residual contact on glass surfaces measured after 15 days (reference value: 45.8 +/- 16.3%); details: 360 h
Bactrocera oleae [17] = test: Insecticidal activity against Bactrocera oleae assessed as insect mortality at 180 mg Ai/L applied through residual contact on glass surfaces measured after 7 days (reference value: 4.0 +/- 4.0%); details: 168 h

SMILES | mortality (Bactrocera oleae [1]) | mortality at 96 µg/mL (Bactrocera oleae [2]) | mortality at 96 µg/mL (Bactrocera oleae [3]) | Survival (Bactrocera oleae [4]) | mortality at 96 µg/mL (Bactrocera oleae [5]) | mortality at 96 µg/mL (Bactrocera oleae [6]) | mortality at 96 µg/mL (Bactrocera oleae [7]) | mortality at 96 µg/mL (Bactrocera oleae [8]) | Activity (Anastrepha suspensa [9]) | mortality (Anastrepha suspensa [10]) | mortality at 180 µg/mL (Bactrocera oleae [11]) | Survival (Bactrocera oleae [12]) | mortality at 180 µg/mL (Bactrocera oleae [13]) | mortality at 180 µg/mL (Bactrocera oleae [14]) | mortality at 180 µg/mL (Bactrocera oleae [15]) | mortality at 180 µg/mL (Bactrocera oleae [16]) | mortality at 180 µg/mL (Bactrocera oleae [17])
CC[C@H]1CCC[C@H](O[C@H]2CC[C@H](N(C)C)[C@@H](C)O2)[C@@H](C)C(=O)C2=C[C@@H]3[C@@H](C=C(C)[C@@H]4C[C@@H](O[C@@H]5O[C@@H](C)[C@H](OC)[C@@H](OC)[C@H]5OC)C[C@@H]34)[C@@H]2CC(=O)O1.CC[C@H]1CCC[C@H](O[C@H]2CC[C@H](N(C)C)[C@@H](C)O2)[C@@H](C)C(=O)C2=C[C@@H]3[C@@H](C=C[C@@H]4C[C@@H](O[C@@H]5O[C@@H](C)[C@H](OC)[C@@H](OC)[C@H]5OC)C[C@@H]34)[C@@H]2CC(=O)O1 | 62% |  |  |  |  |  |  |  |  |  |  |  |  |  |  |  | 
COc1cccc(C(=O)NN(C(=O)c2cc(C)cc(C)c2)C(C)(C)C)c1C [METHOXYFENOZIDE] |  | 0% | 0% | 8.6 days | 2.5% | 2.5% | 2.5% | 49.1% |  |  |  |  |  |  |  |  | 
CC(C)(C)N(NC(=O)c1ccccc1)C(=O)c1ccccc1 [RH-5849] |  |  |  |  |  |  |  |  | 60% | >75% | 0% | 8.7 days | 98.2% | 31.8% | 0% | 100% | 86%
CCc1ccc(C(=O)NN(C(=O)c2cc(C)cc(C)c2)C(C)(C)C)cc1 [TEBUFENOZIDE] |  |  |  |  |  |  |  |  |  |  | 0% | 66.9 days | 0% | 0% | 0% | 58% | 18%
